Patent publication US20240216344A1, “THIAZOLIDINEDIONE ANALOGS FOR THE TREATMENT OF NAFLD AND METABOLIC DISEASES” (Cirius Therapeutics, Inc., priority 2019, published 2024)

Columns and labels:
[1] = Phase 1 clinical trials in healthy volunteers (PK, safety); format: in vivo, human; details: 126 healthy volunteers
[2] = test system: mouse model of NASH (HTF-C diet); experiment: NASH (HTF-C) diet mice: serum small RNA sequencing; format: in vivo; details: HTF-C diet containing 331 ppm
Method: To begin evaluating the exosome cargo of MSDC-0602K-treated mice, WT mice were fed with either a low fat (LF) control diet (Research Diets D09100304) or high trans-fat, fructose, cholesterol (HTF-C) diet composed of 40% trans-fat, 20% fructose, 2% cholesterol (Research Diets D09100301).
Total RNA was isolated from 400 μL of serum and small RNA sequencing was performed by adapter ligation, cDNA synthesis and size selection of 145-160 base pairs. Sequencing was then performed on an Illumina HiSeq3000.
Heat map miRNAs (˜230 miRNAs) were selected by filtering data for 2-fold or greater change and FDR<0.1 comparing LF to HTF-C diet (not shown). […] Dysregulation of a number of these miRNAs has been previously identified in liver or other fibrotic diseases.

[3] = molecular target: T1, MPC (Homo sapiens, UniProt O95563+Q9Y5U8); experiment: Relative binding affinity for the MPC (FIG. 8)
T1 sequence (Q9Y5U8 1-109): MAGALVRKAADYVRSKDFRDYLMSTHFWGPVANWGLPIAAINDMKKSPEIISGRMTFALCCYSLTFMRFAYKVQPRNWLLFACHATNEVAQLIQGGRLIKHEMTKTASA
T1 sequence (O95563 1-127): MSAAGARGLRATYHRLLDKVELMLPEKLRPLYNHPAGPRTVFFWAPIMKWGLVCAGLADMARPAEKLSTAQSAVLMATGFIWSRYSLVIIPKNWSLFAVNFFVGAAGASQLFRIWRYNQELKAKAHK

[4] = test system: diet-induced obese (60% HF diet) LS-MPC2−/− and WT (fl/fl) mice; experiment: Single gavage dose in diet-induced obese WT and LS-MPC2−/− mice: GTT, plasma insulin, plasma ALT, liver qPCR; format: in vivo; details: for glucose tolerance (GTT): 20 h after a single dose of 30 mg/kg
Method: 8 week old WT and LS-MPC2−/− mice were fed a diet of 60% fat (Research Diets D12492) for 20 weeks to induce obesity and insulin resistance. Intraperitoneal glucose tolerance tests (GTT) were performed after a 4 h fast by injection of 1 g/kg D-glucose in saline i.p. to assess glucose tolerance. 3 days after the initial GTT, mice were randomized to receive a single gavage of either vehicle (1% CMC, 0.01% Tween-80) or 30 mg/kg MSDC-0602K. Plasma insulin was measured by Singulex assay and plasma ALT levels were measured by commercially-available kits (Teco Diagnostics). qPCR was performed by isolation of total RNA with RNA-Bee and reverse transcription with a high-capacity cDNA synthesis kit (Invitrogen). qPCR was performed on an Applied Biosystems real-time thermocycler.
WT (fl/fl) and LS-MPC2−/− mice were put on 60% HF diet and became equally obese. […] (FIGS. 1A-1C).

COc1cccc(C(=O)COc2ccc(CC3SC(=O)NC3=O)cc2)c1 (stereo not drawn) [MSDC-0602]
deaths, serious or severe adverse events, discontinuations due to adverse events [1]: abdominal bloating. No deaths, serious adverse events, severe adverse | serum miRNAs altered in a mouse model of NASH [2]: largely corrected | binding to the MPC [3]: maintain, and in some cases improve | glucose tolerance (GTT) ([4]; LS-MPC2−/− mice): no improvement in glucose tolerance | beneficial effects on markers of liver injury ([4]; LS-MPC2−/− mice, acute treatment): refractory | glucose tolerance (GTT) ([4]; WT mice): improved glucose tolerance | gene expression for hepatic stellate cell activation and fibrotic scar formation ([4]; WT mice, single dose): decreased gene expression | plasma ALT concentrations ([4]; WT mice, single dose): decreased plasma ALT concentrations | plasma insulin values ([4]; both WT and LS-MPC2−/− mice, single dose 30 mg/kg): decreased
